Assay results reported in patent US20240368133A1, “Compounds for the Treatment of Pain, in Particular, Neuropathic Pain, and/or Other Diseases or Disorders that are Associated with AT2R and/or AT2R Mediated Signaling” (Confo Therapeutics N.V., priority 2021, published 2024).
pIC50: −log10 of the molar value. Like-named read-outs stand apart in the source and are kept apart here.

Experiments:
human AT2R fused to Cb23 = human AT2R fused to Cb23 (Homo sapiens, UniProt P50052); assay: Radioligand binding assay, displacement of 125I-[Sar1, Ile8]-Angiotensin II, hAT2R Cb23; settings: displacement of 125I-[Sar1, Ile8]-Angiotensin II, human AT2R fused to Cb23, HEK-293 cell membrane preparations; read-out: Binding affinity on hAT2R_Cb23 IC50
Sequence of human AT2R fused to Cb23 (P50052 whole entry, looked up, the tested form may be a part): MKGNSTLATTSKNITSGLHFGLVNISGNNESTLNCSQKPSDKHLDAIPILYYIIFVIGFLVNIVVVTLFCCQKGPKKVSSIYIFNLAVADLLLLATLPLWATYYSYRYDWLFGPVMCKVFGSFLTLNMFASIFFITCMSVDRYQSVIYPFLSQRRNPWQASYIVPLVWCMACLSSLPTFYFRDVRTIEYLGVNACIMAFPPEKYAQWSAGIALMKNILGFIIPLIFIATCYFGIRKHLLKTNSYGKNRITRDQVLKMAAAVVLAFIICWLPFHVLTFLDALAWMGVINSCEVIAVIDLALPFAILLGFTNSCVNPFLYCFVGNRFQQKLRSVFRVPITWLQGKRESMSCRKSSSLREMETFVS
Outline: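 Membranes from HEK-293 cells expressing human AT2R fused to Cb23 were incubated with 0.05 nM 125I-[Sar1, Ile8]-Angiotensin II in 100 μL buffer (50 mM Tris, 5 mM MgCl2, 1 mM EDTA, 0.1% BSA, pH 7.4) for one hour at 25° C. Ligands were tested as eight-point dose-response curves in duplicate, with C21 and Angiotensin II as references.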

CYP2C19 = CYP2C19 (Homo sapiens (Human), UniProt P33261); assay: CYP inhibition, CYP2C19; assay type: in vitro ADME; settings: test compound at 10 μM, read-out: % Inhibition (PIN) 2C19
Sequence of CYP2C19 (P33261 whole entry): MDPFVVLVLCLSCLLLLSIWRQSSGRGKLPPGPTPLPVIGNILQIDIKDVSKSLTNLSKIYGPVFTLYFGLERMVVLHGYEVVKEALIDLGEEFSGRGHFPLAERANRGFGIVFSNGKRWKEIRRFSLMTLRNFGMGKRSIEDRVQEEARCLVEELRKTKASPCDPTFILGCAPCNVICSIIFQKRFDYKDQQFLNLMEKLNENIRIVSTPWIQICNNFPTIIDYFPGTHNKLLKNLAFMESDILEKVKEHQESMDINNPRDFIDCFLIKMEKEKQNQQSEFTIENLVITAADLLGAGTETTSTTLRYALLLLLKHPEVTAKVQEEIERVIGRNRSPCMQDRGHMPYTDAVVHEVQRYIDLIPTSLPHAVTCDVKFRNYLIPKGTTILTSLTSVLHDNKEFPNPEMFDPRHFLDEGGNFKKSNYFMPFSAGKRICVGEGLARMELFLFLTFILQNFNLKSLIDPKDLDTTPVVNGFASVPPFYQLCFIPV
Method: The aim of this assay is to determine the inhibitory potential of a test compound. A major concern for drug-drug-interaction is cytochrome P450 inhibition. Reversible CYP inhibition was determined in human liver microsomes using specific probe substrates for human cytochrome P450 isoenzymes CYP1A2, 2C9, 2C19, 2D6 and 3A4. […]
(§1) A 10 mM stock solution of test compound is prepared in methanol. This stock is further serially diluted 1:3 in methanol and then added to mixture containing 50 mM potassium phosphate buffer pH7.4, human liver microsomes (BD Gentest) and probe substrate. After pre-warming 5 min at 37° C., the reaction is started by adding co-factor mix ([…] glucose-6-phosphate, 1.7 mg/mL NADP, 6 U/mL of glucose-6-phosphate dehydrogenase), resulting in a final concentration of test compound at 10 μM (2% MeOH).
(§2) Final concentrations of co-factor mix components are as follows: 1.56 mg/mL glucose-6-phosphate, 0.34 mg/mL NADP, 1.2 U/mL of glucose-6-phosphate dehydrogenase.
(§3) After incubation at 37° C., the reaction (aliquot of 50 μL) is terminated with 150 μL CH3CN:MeOH (2:1) solution with internal standard (warfarin for 2C9, diclofenac for all other tested isoforms). Samples are centrifuged and the supernatant fractions analyzed by LC-MS/MS.
(§4) The instrument responses (ratio of test compound and internal standard peak areas) are referenced to those for solvent controls (assumed as 100%) in order to determine the percentage reduction in probe metabolism. Percent of control activity vs. concentration plots are generated and fitted using GraphPad Prism software to generate IC50.

CYP3A4 = CYP3A4 (Homo sapiens (Human), UniProt P08684); assay: CYP inhibition, CYP3A4; assay type: in vitro ADME; settings: test compound at 10 μM
Sequence of CYP3A4 (P08684 whole entry): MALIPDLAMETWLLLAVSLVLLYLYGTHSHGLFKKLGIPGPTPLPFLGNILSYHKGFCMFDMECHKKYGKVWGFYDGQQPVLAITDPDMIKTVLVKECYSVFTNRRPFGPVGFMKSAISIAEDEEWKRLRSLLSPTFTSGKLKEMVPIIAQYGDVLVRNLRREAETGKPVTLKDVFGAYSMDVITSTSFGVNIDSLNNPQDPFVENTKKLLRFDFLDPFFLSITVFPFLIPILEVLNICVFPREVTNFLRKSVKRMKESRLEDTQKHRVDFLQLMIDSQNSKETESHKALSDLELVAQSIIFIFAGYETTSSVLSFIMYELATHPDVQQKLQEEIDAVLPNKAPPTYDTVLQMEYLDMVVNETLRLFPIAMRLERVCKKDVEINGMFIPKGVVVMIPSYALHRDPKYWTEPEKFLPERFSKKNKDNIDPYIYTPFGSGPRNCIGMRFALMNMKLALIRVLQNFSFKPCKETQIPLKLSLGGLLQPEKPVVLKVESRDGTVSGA
Method: The aim of this assay is to determine the inhibitory potential of a test compound. A major concern for drug-drug-interaction is cytochrome P450 inhibition. Reversible CYP inhibition was determined in human liver microsomes using specific probe substrates for human cytochrome P450 isoenzymes CYP1A2, 2C9, 2C19, 2D6 and 3A4.
The potential for CYP450 inhibition was assessed by performing in vitro inhibition studies using fluorogenic CYP450 substrates with the corresponding CYP450 enzymes and NADPH regeneration system (Vivid CYP450 Screening Kits) with some minor changes to the manufacturer's protocols. The fluorescent signal produced from reaction is directly proportional to the cytochrome P450 activity. In the cases when tested compounds interfere with the CYP450 enzyme-substrate reaction, the fluorescent signal decreases. In brief, the tested compounds were first dissolved in DMSO at 100× concentration (1 mM), and diluted in buffer to 2.5× concentration (25 μM). Then the 2.5× compound solutions were mixed with the Master Pre-mix consisting of Human CYP450+Oxidoreductase and NADP+Regeneration System (glucose-6-phosphate and glucose-6-phosphate dehydrogenase). After 10 minutes pre-incubation, the enzymatic reaction was initiated by the addition of a mix of NADPH and the appropriate CYP450 substrates. The plate was incubated for the desired reaction time (25 min for CYP1A2, CYP2C9, CYP2D6, and CYP3A4, 60 min for CYP2C19) after which Stop Reagent was added and fluorescence measured using SpectraMax Paradigm Multi-Mode Microplate Reader. All test points were performed in quadruplicates at concentration 10 μM (1% DMSO).
as §1, §2, §3, §4

[1] = human, probe not marked, read-out: % Inhibition (PIN) 3A4
[2] = pH 7.4, probe substrate Midazolam (M), human liver microsomes, read-out: % Inhibition (PIN) 3A4
[3] = pH 7.4, probe substrate Testosterone (T), human liver microsomes, read-out: % Inhibition (PIN) 3A4 (T)

Compound	pIC50 (human AT2R fused to Cb23)	inhibition at 10 µM (CYP2C19) [%]	inhibition at 10 µM (CYP3A4; [1]) [%]	inhibition at 10 µM (CYP3A4; [2]) [%]	inhibition at 10 µM (CYP3A4; [3]) [%]
CC(C)Cc1ccc(-c2nn[nH]n2)c(N2CCN(Cc3ncccn3)CC2)c1 [Compound A-88]	4.81	17.6	21.1		
CC(C)Cc1cc(F)c(-c2nn[nH]n2)c(N2CCN(Cc3ccccn3)[C@@H](C)C2)c1 [Compound A-217, (2S)-4-[3-fluoro-5-isobutyl-2-(2H-tetrazol-5-yl)phenyl]-2-methyl-1-(2-pyridylmethyl)piperazine]	8.55	39		73	25
Cc1cc(CN2CCN(c3cc(CC(C)C)ccc3-c3nn[nH]n3)CC2)no1 [Compound A-82, 3-[[4-[5-isobutyl-2-(2H-tetrazol-5-yl)phenyl]piperazin-1-yl]methyl]-5-methyl-isoxazole]	5.49	-4.12	50.6		
Cc1cnc(CN2CCN(c3cc(CC(C)C)cc(F)c3-c3nn[nH]n3)C[C@@H]2C)s1 [Compound A-223, 2-[[(2S)-4-[3-fluoro-5-isobutyl-2-(2H-tetrazol-5-yl)phenyl]-2-methyl-piperazin-1-yl]methyl]-5-methyl-thiazole]	8.22	25		82	28
CC(C)Cc1cc(F)c(-c2nn[nH]n2)c(N2CCN(Cc3cccnn3)C(C)C2)c1 (stereo not shown) [Compound A-173, 3-[[4-[3-fluoro-5-isobutyl-2-(2H-tetrazol-5-yl)phenyl]-2-methyl-piperazin-1-yl]methyl]pyridazine]	7.80	8.93	29.4		
CCC1CN(c2cc(CC(C)C)cc(F)c2-c2nn[nH]n2)CCN1Cc1cccnn1 (stereo not shown) [Compound A-178, 3-[[2-ethyl-4-[3-fluoro-5-isobutyl-2-(2H-tetrazol-5-yl)phenyl]piperazin-1-yl]methyl]pyridazine]	7.47	7.77	8		
CCC1CN(Cc2cccnn2)CCN1c1cc(CC(C)C)cc(F)c1-c1nn[nH]n1 (stereo not shown) [Compound A-181, 3-[[3-ethyl-4-[3-fluoro-5-isobutyl-2-(2H-tetrazol-5-yl)phenyl]piperazin-1-yl]methyl]pyridazine]	7.83				
CC(C)Cc1cc(F)c(-c2nn[nH]n2)c(N2CC(C)N(Cc3cccnn3)CC2C)c1 (stereo not shown) [Compound A-183, 3-[[4-[3-fluoro-5-isobutyl-2-(2H-tetrazol-5-yl)phen-yl]-2,5-dimethyl-piperazin-1-yl]-methyl]pyridazine]	8.08				
CC(C)Cc1ccc(-c2nn[nH]n2)c(N2CCN(Cc3cccnn3)CC2)c1 [Compound A-90, 3-[[4-[5-isobutyl-2-(2H-tetrazol-5-yl)phenyl]piperazin-1-yl]methyl]pyridazine]	5.69	27.9	55.3		
CC(C)Cc1cc(F)c(-c2nn[nH]n2)c(N2CCN(Cc3cccnn3)[C@@H](C)C2)c1 [Compound A-174, 3-[[(2S)-4-[3-fluoro-5-isobutyl-2-(2H-tetrazol-5-yl)phenyl]-2-methyl-piperazin-1-yl]methyl]pyridazine]	8.63	26.5	36		

Further lines, results first:

pIC50 (human AT2R fused to Cb23)	inhibition at 10 µM (CYP2C19) [%]	inhibition at 10 µM (CYP3A4; [1]) [%]	inhibition at 10 µM (CYP3A4; [2]) [%]	inhibition at 10 µM (CYP3A4; [3]) [%]	Compound
4.83	48.6	68.2			CC(C)Oc1ccc(-c2nn[nH]n2)c(N2CCN(Cc3nc4ccccc4c(=O)[nH]3)CC2)c1 [Compound A-32]
	38.6	54.2			CCCCNC(=O)NS(=O)(=O)c1ccc(C(F)(F)F)cc1N1CCN(Cc2nc3ccccc3n2C)CC1 [Compound A-10, 1-butyl-3-[2-[4-[(1-methylbenzimidazol-2-yl)methyl]piperazin-1-yl]-4-(trifluoromethyl)phenyl]sulfonyl-urea]
5.15	30.9	59.5			CC(C)Oc1ccc(-c2nn[nH]n2)c(N2CCN(Cc3nc4ccccc4n3C)CC2)c1 [Compound A-24, 2-[[4-[5-isopropoxy-2-(2H-tetrazol-5-yl)phenyl]piperazin-1-yl]methyl]-1-methyl-benzimidazole]
6.29					CC(C)Cc1ccc(-c2nn[nH]n2)c(N2CCN(Cc3nc4ccccc4n3C)CC2)c1 [Compound A-20, 2-[[4-[5-isobutyl-2-(2H-tetrazol-5-yl)-phenyl]piperazin-1-yl]methyl]-1-meth-yl-benzimidazole]
5.75	6.38	38.7			CC(C)Cc1ccc(-c2nn[nH]n2)c(N2CCN(Cc3nccn3C)CC2)c1 [Compound A-83, 1-[5-isobutyl-2-(2H-tetrazol-5-yl)-phenyl]-4-[(1-meth-ylimidazol-2-yl)-methyl]piperazine]
5.68	73	94.6			CC(C)Cc1ccc(-c2nn[nH]n2)c(N2CCN(Cc3nc4ccccc4c(=O)[nH]3)CC2)c1 [Compound A-31, 2-[[4-[5-isobutyl-2-(2H-tetrazol-5-yl)phenyl]piperazin-1-yl]methyl]-3H-quinazolin-4-one]
5.66					CCCCOC(=O)NS(=O)(=O)c1ccc(C(F)(F)F)cc1N1CCN(Cc2nc3ccccc3n2C)CC1 [Compound A-09, butyl N-[2-[4-[(1-methylbenzimidazol-2-yl)methyl]piperazin-1-yl]-4-(trifluoromethyl)phenyl]sulfonylcarbamate]
5.63	18.9	49.1			CC(C)Cc1ccc(-c2nn[nH]n2)c(N2CCN(Cc3ccnn3C)CC2)c1 [Compound A-84, 1-[5-isobutyl-2-(2H-tetrazol-5-yl)phenyl]-4-[(1-methylpyrazol-5-yl)methyl]piperazine]
5.68					CC(C)Oc1ccc(-c2nn[nH]n2)c(N2CCN(Cc3nc4ccccc4s3)CC2)c1 [Compound A-51, 2-[[4-[5-isoprop-oxy-2-(2H-tetrazol-5-yl)phenyl]piper-azin-1-yl]methyl]-1,3-benzothiazole]
5.90					CCCCNC(=O)NS(=O)(=O)c1ccc(C)cc1N1CCN(Cc2nc3ccccc3n2C)CC1 [Compound A-12, 1-butyl-3-[4-methyl-2-[4-[(1-methylbenzimidazol-2-yl)methyl]piperazin-1-yl]phenyl]sulfonyl-urea]
